Test results taken from PubChem BioAssay AID435019 (Southern Research Specialized Biocontainment Screening …, 2010).

Tested on: mammalian cell viability, cytotoxicity counter-screen
Assay: mammalian cell cytotoxicity, dose response, cytotoxicity control for M. tuberculosis inhibitor project (AID 435019)

Row | SMILES | CC50 [µM]
1 | C[CH2][Hg][S]c1ccccc1C(=O)O | 3.56
2 | CN(C)c1ccnc2c[cH-]cc12.[Fe].c1ccc(-[c-]2[c-](-c3ccccc3)[c-](-c3ccccc3)[c-](-c3ccccc3)[c-]2-c2ccccc2)cc1 (configuration not stated) | 11.8
